In US11447511B2, “Dioxolane analogues of uridine for the treatment of cancer” (MEDIVIR AB, priority 2014, dated 2022):

Legend:
[1] = Cell cytotoxicity assay, HUH7; type: cell-based; conditions: human; Huh7 cells, 5 days at 37° C., XTT dye
Description: (§1) Cells were seeded 24 hours prior to compound addition. Each test compound (serially diluted from 100 μM) was added to Huh7 (1.5×10^4 cells/well) or HepG2 (1.5×10^4 cells/well), and allowed to incubate for 5 days at 37° C. A medium only control was used to determine the minimum absorbance value and an untreated cell value. At the end of the growth period, XTT dye from Polysciences Europe GmbH was added to each well. The absorbance at 450 nm with a reference wavelength of 600 nm was read with a Sunrise (Tecan) using the medium only control wells as blanks. The 50% inhibition value (CC50) was determined by comparing the degree of inhibition (compared to cell control) plotted against compound concentration. Results from the dilution series were fitted to a sigmoidal dose-response curve.
(§2) Compounds of the invention were evaluated in these assays to assess the stability in human intestinal S9 fraction (HIS9) and human liver S9 fraction (HLS9), and for Cell Cytotoxicity in HUH7, HEP3B and HEPG2 cells.

[2] = Cell cytotoxicity assay, HEP3B; type: cell-based; conditions: human, HEP3B cells
Description: as §1, §2

[3] = Cell cytotoxicity assay, HEPG2; type: cell-based; conditions: human; HepG2 cells, 5 days at 37° C., XTT dye
Description: as §1, §2

[4] = Stability in human liver S9 fraction (HLS9); type: in vitro ADME; conditions: liver S9 fraction, pH 7.4; human liver S9 0.4 mg protein/mL, 5 μM test compound, 37° C.
Description: (§3) Stability in Human Intestinal S9 Fraction (HIS9) and in Human Liver S9 Fraction (HLS9),
(§4) Stock solutions of each test compound (10 mM) were prepared in DMSO and stored at −20° C. Prior to the start of the experiment, the test compounds were diluted to 500 μM in 50% acetonitrile in water. The reaction mixture was prepared in a total volume of 250 μL containing 5 mM MgC2, 1 mM NADPH and 5 μM test compound in 50 mM potassium phosphate buffer (pH 7.4). The reaction was initiated by addition of human liver or intestinal S9 fraction with a final concentration of 0.4 mg protein/mL (Xeno Tech). The reaction mixture was incubated on an orbital shaker at 37° C. At the desired time points (0, 10, 30 and 60 minutes) aliquots of 50 μL were taken and the reaction was stopped by mixing with 150 μL acetonitrile containing internal standard. Standard solutions of each test compound were prepared from the 500 μM solution by diluting the solution to a final concentration of 5 μM in boiled human S9 (0.4 mg protein/mL), 5 mM MgCl2 and 50 mM potassium phosphate buffer (pH 7.4). The standards and samples were kept on ice for 30 min then centrifuged at 3 000 g for 20 minutes at 10° C., there after 10 μL of supernatant was mixed with 200 μL 50% acetonitrile in water. 0.5 μM of each test compound in 50% acetonitrile in water was injected into the LC/MS-MS to determine the daughter ion, declustring potential (DP), collision energy (CE) and collision cell exit potential (CXP) in order to develop a LC/MS-MS method. The compounds were separated using a C18 column with a QTRAP5500 system. The mobile phase consisted of solvent A (98% water, 2% acetonitrile, 0.1% acetic acid or 10 mM ammonium acetate) and solvent B (80% acetonitrile, 20% water, 0.1% acetic acid or 10 mM ammonium acetate). Elution of the compounds was performed by using a gradient of solvent B from 0% to 100%. 5 μL of standard points and samples were injected for analysis with QTRAP5500.
(§5) The amount of parent compound was determined on the basis of the peak area for each time point compared to standard which was set to 5 μM. Intrinsic clearance (CLint) and half-life (t1/2) were determined from the disappearance curves of the test compound using Excel software.

[5] = Stability in human intestinal S9 fraction (HIS9); type: in vitro ADME; conditions: human intestinal S9 0.4 mg protein/mL, 5 μM test compound, 37° C.
Description: as §3, §4, §5

[6] = test system: HIV; conditions: relative to 3TC; cited from earlier work
[7] = test system: HBV in Hep G2.2.15 cells; conditions: cited from earlier work

Structure (SMILES): COC(=O)[C@H](C)NP(=O)(OC[C@H]1OC[C@@H](n2ccc(N)nc2=O)O1)Oc1ccc(Br)cc1 (single isomer, unassigned) [27 dia-2]
- CC50 at 5 days [1]: 1.02 µM
- CC50 at 5 days [2]: 0.348 µM
- CC50 at 5 days [3]: 0.223 µM
- microsomal CLint at 5 μM [4]: 57 µL/min/mg
- CLint Intestinal S9 [5]: 6 µL/min/mg

Structure (SMILES): CCC[C@H](C)OC(=O)[C@H](C)NP(=O)(OC[C@H]1OC[C@@H](n2cc(F)c(N)nc2=O)O1)Oc1cccc(C2CC2)c1 (single isomer, unassigned) [29 dia-2]
- CC50 at 5 days [1]: 0.495 µM
- CC50 at 5 days [2]: 0.075 µM
- microsomal CLint at 5 μM [4]: 36 µL/min/mg
- microsomal CLint at 5 μM ([5]; intestinal S9 fraction, pH 7.4): 18 µL/min/mg

Structure (SMILES): COC(=O)[C@H](C)NP(=O)(OC[C@H]1OC[C@@H](n2ccc(N)nc2=O)O1)Oc1ccc(C2CC2)cc1 (single isomer, unassigned) [34 dia-2]
- CC50 at 5 days [1]: 0.524 µM
- CC50 at 5 days [2]: 0.21 µM
- CC50 at 5 days [3]: 0.236 µM
- microsomal CLint at 5 μM [4]: 64 µL/min/mg
- CLint Intestinal S9 [5]: 6 µL/min/mg

Structure (SMILES): COC(=O)C(C)NP(=O)(OC[C@@H]1O[C@H](n2ccc(N)nc2=O)CS1)Oc1ccccc1 (stereo partly shown) [CF 1109]
- fold less active against HIV than parent nucleoside 3TC [6]: ~250 fold
- effectiveness against HBV compared with parent nucleoside 3TC [7]: virtually equally effective

Structure (SMILES): Nc1ccn([C@@H]2CO[C@H](CO)O2)c(=O)n1 [Troxacitabine, 4-amino-1-((2S,4S)-2-(hydroxymethyl)-1,3-dioxolan-4-yl)pyrimidin-2(1H)-one, reference compound]
- CC50 at 5 days [1]: 0.646 µM
- CC50 at 5 days [2]: 0.279 µM
- CC50 at 5 days [3]: 0.218 µM
